According to ChEMBL document CHEMBL5331145, “Discovery of a Novel Bifunctional Steroid Analog, YXG-158, as an Androgen Receptor Degrader and CYP17A1 Inhibitor for the Treatment of Enzalutamide-Resistant Prostate Cancer” (J Med Chem, 2023):

Assays:
[1] = Effect on androgen sensitive organs in testosterone propionate stimulated castrated male Sprague-Dawley rat assessed as ventral prostate weight loss at 20 mg/kg, po administered once daily for 10 days and measured 24 hrs post last dose; type: functional; conditions: time 11 day
[2] = Effect on androgen sensitive organs in testosterone propionate stimulated castrated male Sprague-Dawley rat assessed as seminal vesicles weight loss at 20 mg/kg, po administered once daily for 10 days and measured 24 hrs post last dose; type: functional; conditions: time 11 day
[3] = Antitumor activity against human LNCaP/AR cells xenografted in SCID male mouse assessed as tumor growth inhibition at 10 mg/kg, po administered once daily for 28 days and measured every 3 days; type: functional; conditions: time 28 day
[4] = biological target: GABA-A receptor; anion channel; experiment: Antagonist activity at GABA-A (unknown origin); type: toxicity, Homo sapiens
[5] = Clearance in Sprague-Dawley rat at 5 mg/kg, iv measured upto 24 hrs by LC-MS/MS analysis; type: ADME, organism-based; conditions: in vivo
[6] = Half life in dog at 2 mg/kg, iv measured upto 24 hrs by LC-MS/MS analysis; type: ADME, organism-based, Canis lupus familiaris; conditions: in vivo
[7] = Clearance in dog at 2 mg/kg, iv measured upto 24 hrs by LC-MS/MS analysis; type: ADME, organism-based, Canis lupus familiaris; conditions: in vivo
[8] = Cmax in dog at 10 mg/kg, po measured upto 24 hrs by LC-MS/MS analysis; type: ADME, organism-based, Canis lupus familiaris; design: dose 10 mg/kg, time < 24 hrs, route po; conditions: in vivo
[9] = Volume of distribution at steady state in dog at 2 mg/kg, iv measured upto 24 hrs by LC-MS/MS analysis; type: ADME, organism-based, Canis lupus familiaris; conditions: in vivo, read-out: Vdss
[10] = Tmax in Sprague-Dawley rat at 10 mg/kg, po measured upto 24 hrs by LC-MS/MS analysis; type: ADME, organism-based; conditions: in vivo
[11] = AUC(0 to t) in dog at 10 mg/kg, po measured upto 24 hrs by LC-MS/MS analysis; type: ADME, organism-based, Canis lupus familiaris; conditions: in vivo
[12] = Cmax in dog at 2 mg/kg, iv measured upto 24 hrs by LC-MS/MS analysis; type: ADME, organism-based, Canis lupus familiaris; design: time < 24 hrs, dose 2 mg/kg, route iv; conditions: in vivo
[13] = AUC(0 to t) in dog at 2 mg/kg, iv measured upto 24 hrs by LC-MS/MS analysis; type: ADME, organism-based, Canis lupus familiaris; conditions: in vivo
[14] = Oral bioavailability in Sprague-Dawley rat at 10 mg/kg measured upto 24 hrs by LC-MS/MS analysis; type: ADME, organism-based; conditions: in vivo
[15] = Cmax in Sprague-Dawley rat at 5 mg/kg, iv measured upto 24 hrs by LC-MS/MS analysis; type: ADME, organism-based; design: dose 5 mg/kg, time < 24 hrs, route iv; conditions: in vivo
[16] = AUC(0 to t) in Sprague-Dawley rat at 10 mg/kg, po measured upto 24 hrs by LC-MS/MS analysis; type: ADME, organism-based; conditions: in vivo
[17] = Tmax in dog at 10 mg/kg, po measured upto 24 hrs by LC-MS/MS analysis; type: ADME, organism-based, Canis lupus familiaris; conditions: in vivo
[18] = Half life in dog at 10 mg/kg, po measured upto 24 hrs by LC-MS/MS analysis; type: ADME, organism-based, Canis lupus familiaris; conditions: in vivo
[19] = Half life in Sprague-Dawley rat at 10 mg/kg, po measured upto 24 hrs by LC-MS/MS analysis; type: ADME, organism-based; conditions: in vivo
[20] = Oral bioavailability in dog at 10 mg/kg measured upto 24 hrs by LC-MS/MS analysis; type: ADME, organism-based, Canis lupus familiaris; conditions: in vivo
[21] = Cmax in Sprague-Dawley rat at 10 mg/kg, po measured upto 24 hrs by LC-MS/MS analysis; type: ADME, organism-based; design: dose 10 mg/kg, time < 24 hrs, route po; conditions: in vivo
[22] = AUC(0 to t) in Sprague-Dawley rat at 5 mg/kg, iv measured upto 24 hrs by LC-MS/MS analysis; type: ADME, organism-based; conditions: in vivo
[23] = Volume of distribution at steady state in Sprague-Dawley rat at 5 mg/kg, iv measured upto 24 hrs by LC-MS/MS analysis; type: ADME, organism-based; conditions: in vivo, read-out: Vdss
[24] = Half life in Sprague-Dawley rat at 5 mg/kg, iv measured upto 24 hrs by LC-MS/MS analysis; type: ADME, organism-based; conditions: in vivo

CNC(=O)c1ccc(N2C(=S)N(c3ccc(C#N)c(C(F)(F)F)c3)C(=O)C2(C)C)cc1F [ENZALUTAMIDE]
Activity [1]: -67% | Activity [2]: -67% | TGI [3]: 64% | IC50 [4]: 4.8 µM

Cc1cn(C2=CCC3C4CC=C5C[C@@H](NC(=O)c6ccc(F)cc6)CC[C@]5(C)C4CC[C@]23C)cn1.Cl (some centres undefined)
clearance [5]: 1.82 mL/min/kg | half-life [6]: 5.15 h | clearance [7]: 6.86 mL/min/kg | Cmax [8]: 907 ng/mL | Vd [9]: 1.92 L/kg | Tmax [10]: 0.83 h | AUCt [11]: 10460 h/ng/mL | Cmax [12]: 1860 ng/mL | AUCt [13]: 4737 h/ng/mL | bioavailability [14]: 93% | Cmax [15]: 14300 ng/mL | AUCt [16]: 84338 h/ng/mL | Tmax [17]: 6 h | half-life [18]: 12.4 h | half-life [19]: 6.82 h | bioavailability [20]: 44% | Cmax [21]: 8800 ng/mL | AUCt [22]: 45408 h/ng/mL | Vd [23]: 0.77 L/kg | half-life [24]: 6.39 h
